Values joined by “and” are separate entries in the source; they are usually repeats but may differ in a detail not shown here. Equal entries are not always repeated.
test system: P. falciparum 3D7 growth, pLDH absorbance; test: P. falciparum 3D7 growth inhibition, dose response, strain 3D7 (AID 2305)

Row | Compound | IC50
1 | CN1CCN(C(C(=O)NCc2cc(Cl)cc(Cl)c2)c2ccccc2-c2ccsc2)CC1 (stereo not given) | 940 nM
2 | O=C(Nc1ccc2c(c1)CCN2C1CCN(Cc2cccc(C(F)(F)F)c2)C1)c1ccco1 (stereo not given) | 560 nM
3 | N#Cc1ccc(N(CCCO)Cc2ccccc2C(F)(F)F)cc1C(F)(F)F | 980 nM
4 | O=C(c1ccccc1F)N(Cc1ccc(Cl)cc1)c1ccccn1 | 1020 nM
5 | CS(=O)(=O)Cc1ccc(Nc2nccc(-c3c(-c4cccc(NC(=O)c5c(F)cccc5F)c4)nn4ncccc34)n2)cc1 | 160 nM
6 | COc1ccc(OC)c(C=CC(=O)NC2CCC(CN3CCC(c4c[nH]c5ccccc45)CC3)CC2)c1 (stereo not given) | 650 nM
7 | COc1ccc(C(=O)Nc2nonc2-c2ccc(OC)c(OC)c2)cc1Cl | 670 nM
8 | COc1cccc(-c2nc3c(N4CCN(c5ccncc5)CC4)cccc3n2CC2CCCCCN2)n1 (stereo not given) | 1060 nM
9 | Cc1cc2c(NC(=O)NC3CCN(Cc4ccc(Cl)c(Cl)c4)CC3)cccc2cn1 | 680 nM
10 | Cc1cccc(Nc2nc3nonc3nc2Nc2cccc(Cl)c2Cl)c1C | 1030 nM
11 | CS(=O)(=O)c1ccc2c(c1)CCN(CCC1CCC(NC(=O)C(=Cc3ccc(Cl)cc3Cl)c3ccc(-c4ccccc4)cc3)CC1)CC2 (stereo not given) | 1170 nM
12 | Cc1cc(Cl)ccc1OC(C)C(=O)N1CCc2ccccc21 (stereo not given) | 670 nM
13 | CCCN(CCC)CCCOc1ccc(C(=O)c2c(-c3ccc(OCCCN(CCC)CCC)cc3)oc3ccc(Cl)cc23)cc1 | 340 nM
14 | COc1ccc(CCNc2nc(NCCc3cnc[nH]3)nc(NCc3cccc4ccccc34)n2)cc1OC | 540 nM
15 | O=C(/C=C/c1ccc(Cl)c(Cl)c1)NCCCCCCN1CCN(C(=O)Nc2ccc(Cl)c(C(F)(F)F)c2)CC1 | 530 nM
16 | O=C(NC1CCC(CCN2CCc3ccc(-c4cnccn4)cc3CC2)CC1)c1cccc(-n2cccn2)c1 (stereo not given) | 900 nM
17 | CC(=O)Nc1ccc(CN(C)C2CCN(c3cc(NC(=O)c4cccc(C)c4)ccn3)CC2)cc1 | 900 nM
18 | O=C(/C=C/c1ccc(Cl)c(Cl)c1)Nc1cccc(CN2CCC(c3c[nH]c4ccccc34)CC2)c1 | 670 nM
19 | Cc1cccc2[nH]c(-c3cccc(-c4ccc(NC(=O)CCc5cnc[nH]5)cc4)c3)nc12 | 300 nM
20 | CC(=O)Nc1ccc(OCCCN(Cc2ccccc2C(F)(F)F)c2ccc(C(F)(F)F)c(C#N)c2)c(Cl)c1 | 1450 nM
21 | Cc1ccccc1Nc1nc(NCCc2ccccc2)nc2ccccc12 | 1260 nM
22 | O=C(Nc1ccc(N2CCCN(Cc3cccc(F)c3)CC2)cc1)c1ccccc1 | 960 nM
23 | COc1ccc(C2CC(c3ccccc3O)=NN2C(=O)c2ccco2)cc1OC (stereo not given) | 950 nM
24 | COc1ccc2cc(C(=O)NC3CCC(CCN4CCc5cc(C#N)ccc5C4)CC3)[nH]c2c1 (stereo not given) | 1010 nM

Row | Compound | IC50
25 | C=CCNc1cc(-c2ccccn2)nc(-c2ccccn2)n1 | 470 nM
26 | COc1ccc(C(=O)CCC(=O)N(CCSC(C)(C)C)Cc2ccc(-c3ccc(CNCCc4ccc(S(C)(=O)=O)cc4)cn3)cc2)cc1F | 630 nM
27 | S=C(NCC1CCCCC1)NC1CCC(CN2CCC(c3c[nH]c4ccccc34)CC2)CC1 (stereo not given) | 1110 nM
28 | FC(F)c1nc2ccccc2n1-c1nc(N2CCOCC2)nc(N2CCOCC2)n1 | 760 nM
29 | Cc1cc(NC(=O)[C@H](CC(C)C)Nc2ccc(C#N)c3ccccc23)ccc1F | 780 nM
30 | Cn1c(NC(=O)C2CCCN(C(=O)c3ccc(O)c(-c4ccc(Cl)c(Cl)c4)c3)C2)nc2ccccc21 (stereo not given) | 750 nM
31 | O=C(NCC1CCC(C(=O)NCCN2CCCCC2)CC1)c1ccc(O)c(-c2ccc(Cl)c(Cl)c2)c1 (stereo not given) | 1170 nM
32 | N[C@@H](Cc1cc(I)c(Oc2ccc(O)c(C(=O)O)c2)c(I)c1)C(=O)O | 990 nM
33 | O=S(=O)(Nc1cc2c(cc1O)CCN(C1CCC1)CC2)c1ccc(Oc2ccc(F)cc2)cc1 | 780 nM
34 | CCn1cc(C=C2Oc3c(ccc(O)c3CN3CCCCC3)C2=O)c2ccccc21 | 280 nM
35 | CCCN(Cc1ccc(C)cc1)Cc1cc(=O)c2cc(Cl)ccc2[nH]1 | 1050 nM
36 | C=C[C@H]1CN2CC[C@H]1C[C@H]2[C@H](O)c1ccnc2ccc(OC)cc12 | 100 nM and 430 nM and 150 nM
37 | Cc1cc(Nc2cccc(C(F)(F)F)c2)nc(Nc2cccc(C(F)(F)F)c2)n1 | 640 nM
38 | CC(C)C1C(O)=C(c2ccc3ccccc3c2)C(=O)N1CC1CCCCC1 (stereo not given) | 1130 nM
39 | O=C1c2ccc([N+](=O)[O-])cc2C(=O)N1c1ccc2[nH]ncc2c1 | 1150 nM
40 | Cc1[nH]c(C)c(-c2ccc(Br)cc2)c(=O)c1Br | 640 nM
41 | Cn1nc(-c2cccc(CNC3CCc4ccccc43)c2)c2cnc(NC3CCCC3)nc21 (stereo not given) | 860 nM
42 | CN(C)CCNCc1ncsc1-c1ccc2c(Nc3ccc(F)cc3Cl)ccnc2c1 | 1470 nM
43 | Cc1nnsc1C(=O)Nc1cccc(-c2ccc(-c3nc4ccc(C(F)(F)F)cc4[nH]3)cc2)c1 | 310 nM
44 | CC(C)(C)c1ccc(CN2CCC(NC(=O)c3cc(-c4cccc(C(F)(F)F)c4)cs3)C2)cc1 (stereo not given) | 810 nM
45 | CCC(C)NS(=O)(=O)c1ccc2nc(Nc3ccc(C)cc3)n(C3CCCCC3)c2c1 (stereo not given) | 460 nM
46 | O=C(NCCCCCN1CCC(c2ccc(O)cc2)CC1)c1ccc(-c2ccccc2)cc1 | 930 nM
47 | CCN(CC)CCOc1ccc(C(O)(C#CC(O)(c2ccc(Br)cc2)c2ccc(OCCN(CC)CC)cc2)c2ccc(Br)cc2)cc1 (stereo not given) | 620 nM
48 | CS(=O)(=O)CCCNCc1ccc(-c2cc3c(Nc4ccc(OCc5ccccc5)cc4)ncnc3cn2)o1 | 650 nM

Row | Compound | IC50
49 | O=S(=O)(Nc1cccc(F)c1CNCc1ccccn1)c1ccc(Cl)c(Cl)c1 | 890 nM
50 | N#Cc1cccc(Nc2cc(C(F)(F)F)nc(Nc3ccccc3)n2)c1 | 1440 nM
51 | FC(F)(F)c1ccc2c(NCCc3ccccc3)ccnc2c1 | 1270 nM
52 | Cc1ccc(NC(=O)c2ccc(CN3CCCN(Cc4cccc(C#N)c4)CC3)cc2)cc1F | 590 nM
53 | Oc1cccc(Nc2ccnc3cc(-c4cc5ccccc5o4)ccc23)c1 | 760 nM
54 | CC(C)(C)c1ccc(NC(=O)c2cccc(CN3CCCN(Cc4ccc(F)cc4)CC3)c2)cc1 | 990 nM
55 | Nc1nc(N)c2cc(N(Cc3ccccc3)Cc3ccccc3)ccc2n1 | 610 nM
56 | CC(C)C[C@H](NC(=O)c1ccc(OCCN2CCOCC2)cc1)C(=O)N[C@H](/C=N/NC(=O)c1ccccc1)CCc1ccccc1 | 60 nM
57 | COc1cc(C(=O)N2COCC(CCCN3CCC(N4CCCC4)CC3)(c3ccc(Cl)c(Cl)c3)C2)cc(OC)c1OC (stereo not given) | 780 nM
58 | COC(=O)Nc1ccc(-c2ccc(C(=O)NC3CCN(C[C@H](O)c4ccnc5ccc(OC)cc45)CC3)cc2)c(C)c1 | 690 nM
59 | Cc1cccc2[nH]c(-c3cccc(-c4ccc(C(=O)NCc5nccn5C)cc4)c3)nc12 | 1320 nM
60 | O=C(NCc1ccc(Cl)c(Cl)c1)c1ccc(-c2nc3ccc(Cl)cc3[nH]2)cc1 | 900 nM
61 | COc1ccc2nccc([C@@H](O)CN3CCC(NC(=O)c4cc5c(F)cc(F)cc5[nH]4)CC3)c2c1 | 240 nM
62 | O=C(/C=C/c1ccc(Cl)cc1)NCCCCCN1CCCC(C(=O)Nc2ccc(F)c(Cl)c2)C1 (stereo not given) | 1120 nM
63 | O=C(c1cccc(Br)c1)N1CCN(c2ccc([N+](=O)[O-])c(NC3CC3)c2)CC1 | 940 nM
64 | CCCCCN1CCCC1CNS(=O)(=O)c1ccc(C(=O)Nc2ccc(C(F)(F)F)cc2)cc1 (stereo not given) | 840 nM
65 | Cc1[nH]c(C)c(-c2ccc(OCc3ccc(F)cc3)cc2)c(=O)c1Br | 80 nM
66 | COc1ccc(C(=O)CCC(=O)N(Cc2ccc(-c3ccc(CNCCc4ccccc4)cn3)cc2)C(C)CN(C)C)cc1F (stereo not given) | 750 nM
67 | COCCn1ccc2c3c(N)nc(N)nc3ccc21 | 210 nM
68 | Cc1cc(NC(=O)Nc2ccc(N(C)C)cc2)c2cc(Cl)ccc2n1 | 860 nM
69 | O=[N+]([O-])c1cccc(CNCC2CCC(CNCc3cccc([N+](=O)[O-])c3)CC2)c1 (stereo not given) | 140 nM
70 | CCC1CN2CCc3c([nH]c4ccccc34)[C@@H]2C[C@@H]1CC1NCCc2cc(OC)c(OC)cc21 (stereo not given in full) | 860 nM and 840 nM
71 | NC(=Nc1nc(-c2ccccn2)cc2ccccc12)c1cccc(Cl)c1 | 310 nM
72 | Cc1ccccc1N1CCN(c2ccc(C(=O)NC3CC3)cn2)CC1 | 460 nM

Row | Compound | IC50
73 | NC(N)=Nc1nc(-c2ccc(N=C(N)N3CCC[C@H]3CN3CCCC3)cc2)cs1 | 1110 nM
74 | CCN(CC)c1ccc2nc(N)nc(N)c2c1Cl | 30 nM
75 | COc1cccc(-c2cc(C(=O)NC3CCC(N4CCC(c5ccccc5C)CC4)CC3)[nH]n2)c1 (stereo not given) | 1120 nM
76 | CC(C)(C)c1ccc(N2C(N)=NC(N)=NC2(C)C)cc1 | 30 nM
77 | CC(=O)C=C1CC(=O)N(C[C@@H](O)[C@H]2O[C@@H]3OC(C)(C)O[C@@H]3[C@H]2O)c2ccccc2N1 | 1260 nM
78 | CNC(=O)c1cnc(Nc2ccc(N3CCOCC3)cc2)nc1Nc1cccc(OC)c1 | 760 nM
79 | COc1ccc2nccc(NC(=O)C3CCC(NCc4cnc(SC)c([N+](=O)[O-])c4)CC3)c2n1 (stereo not given) | 930 nM
80 | CC(C)C[C@H](NC(=O)[C@H](Cc1ccccc1)NC(=O)CCN1C(=O)COc2ccc(C(=O)O)cc21)C(=O)NC(CC1CCCCC1)C(O)CC(=O)NCCCn1ccnc1 (stereo not given in full) | 970 nM
81 | CNC(=O)CNC(=O)COc1cccc2ccccc12 | 230 nM
82 | O=C(Nc1cc(Cl)cc(Cl)c1)N[C@H]1CCN(CCCCCNC(=O)[C@@H]2C[C@H]2c2ccc(Cl)c(Cl)c2)C1 | 860 nM
83 | Cc1cccc2[nH]c(-c3cccc(-c4cccc(NC(=O)Nc5ccccc5)c4)c3)nc12 | 140 nM
84 | Cc1ccc(CCOCCCCCNCC(O)c2cc(Cl)c(N)c(Cl)c2)cc1 (stereo not given) | 950 nM
85 | Cc1[nH]c2ccc(NS(C)(=O)=O)cc2c1C1CCN(CCC2CCN(C(=O)/C=C/c3ccc(Cl)c(Cl)c3)CC2)CC1 | 840 nM
86 | COc1ccc(-c2ccc(CNCc3ccc(F)cc3)cc2)cc1S(=O)(=O)NCCN1CCCC1 | 730 nM
87 | O=C(/C=C/c1ccc(Cl)c(Cl)c1)N1CCC(CN2CCC(c3c(Br)[nH]c4ccccc34)CC2)CC1 | 290 nM
88 | COc1cc(C(=O)N2N=C(c3c(-c4ccccc4)c4cc(Br)ccc4[nH]c3=O)CC2c2cccc([N+](=O)[O-])c2)cc(OC)c1OC (stereo not given) | 940 nM
89 | CCC[C@@H]([C@@H](CC(C)C)C(=O)N[C@@H](CCCCNC(=O)c1ccccn1)C(=O)Nc1nccs1)N(O)C=O | 50 nM
90 | Nc1nccc2ccc(Oc3ccncc3)cc12 | 480 nM
91 | COc1coc(C(=O)NC2CCN(CC3(c4ccc(Cl)cc4)CCC3)CC2)c1OC | 160 nM
92 | N#Cc1cccc(Nc2nccc(NCC(O)c3ccc(C(F)(F)F)cc3)n2)c1 (stereo not given) | 560 nM
93 | Cc1ccc(N2C(=O)C3C(C2=O)[C@]2(c4ccccc4)C(=O)[C@@]3(c3ccccc3)C(c3ccccc3)=C2c2ccccc2)c(C)c1 (stereo not given in full) | 530 nM
94 | CN(C)CCNc1cc(-c2cccnc2)nc(-c2ccncc2)n1 | 600 nM
95 | O=C(Cn1cc(C(F)(F)F)cc(Cl)c1=O)N1CCN(S(=O)(=O)c2ccc(Cl)cc2)CC1 | 900 nM
